Data set [1] has as its system Sprague Dawley rats. As to the kind of experiment: Subchronic PCP-induced social interaction deficits. Format: in vivo, rat. From the text: Phencyclidine (PCP) administered to humans as well to experimental animals induces full-spectrum of schizophrenia symptoms, including negative symptoms and cognitive deficits. A major symptom of schizophrenia is considered to be social isolation/withdrawal as part of the cluster of negative symptoms. Subchronic treatment with PCP in rats leads to the development of clear signs of social withdrawal as measured by deficits in the interaction time with a cage intruder rat.
Male Sprague Dawley rats (˜150 g on arrival) from Harlan (Indiana) were used in this study. Upon receipt, rats were group housed in OPTI rats ventilated cages. Rats were housed in groups of 2-3/cage for the remainder of the study. During the period of acclimation, rats were examined on a regular basis, handled, and weighed to assure adequate health and suitability. Rats were maintained on a 12/12 light/dark cycle with the light on at 7:00 a.m. The room temperature was maintained between 20 and 23° C. with a relative humidity maintained between 30% and 70%. Chow and water were provided ad libitum for the duration of the study. Animals were randomly assigned across treatment groups and balanced by age. Animals were not disturbed between test days.
The following compounds were used. 1) Compound No. 88 or 90 (0.3, 1 and 3 mg/kg; p.o.) was dissolved in 3% Tween and PBS and administered 30 min prior to test; 2) PCP (2 mg/kg; s.c.) was dissolved in saline and administered twice daily for 5 days prior to test day; 3) Clozapine (2.5 mg/kg; i.p.) was dissolved in 5% PEG:5% Tween 80 in saline and administered 30 min. prior to test. All compounds were administered at a dose volume of 1 mL/kg.
For five days prior to test, rats were injected twice daily with either PCP (2 mg/kg; s.c) or saline (s.c). On day 6 and following a 30 min pretreatment with vehicle, clozapine or Compound No. 90, a pair of rats, unfamiliar to each other, receiving the same treatment were placed in a white plexiglas open field arena (24″×17″×8″) and allowed to interact with each other for 6 min. Social interactions (‘SI’) included: sniffing the other rat; grooming the other rat; climbing over or under or around the other rat; following the other rat; or exploring the ano-genital area of the other rat. Passive contact and aggressive contact were not considered a measure of social interaction. The time the rats spent interacting with each other during the 6 min test was recorded by a trained observer. The social interaction chambers were thoroughly cleaned between the different rats.
Data were analyzed by analysis of variance (ANOVA) followed by post-hoc analysis (e.g., Fischer, Dunnett) when appropriate. An effect was considered significant if p<0.05.

Data set [2] relates to Sprague Dawley rats.
Description: The two-trial object recognition paradigm developed by Ennaceur and Delacour in the rat was used as a model of episodic short term memory.
The experiments were carried out using 174-186 male Sprague Dawley rats (Centre d'Elevage R. Janvier, B. P. 55, 53940 Le Genest-Saint-Isle, F.). 143-146 rats met inclusion criteria described in the experimental procedure. In addition, 24 satellite animals were used for pharmacokinetic analysis. The rats (main study and pharmacokinetic study) weighed between 233 and 283 g (6-7 weeks old) at the beginning of the experiments. […] Rats were allowed to acclimate to environmental conditions for at least 5 days prior to experimentation. Rats were numbered by marking their tail with indelible markers.
Each solution was prepared fresh each day of dosing. […] No corrective factor is required. […] PEG200 was dissolved in water for injection. The volume of administration was 10 mL/kg body weight for the oral route of administration and 5 mL/kg body weight for intraperitoneal route of administration. Each solution was prepared fresh each day of dosing.
The experimental arena is a square wooden box (60×60×40 cm) painted dark blue, with 15×15 cm black painted squares under a clear plexiglass floor. The arena and the objects were cleaned using water between each trial in order to avoid odour trails left by rats. The arena was placed in a dark room illuminated only by halogen lamps oriented towards the ceiling and giving an uniform dim light in the box (around 60 lux). Animals to be tested were placed in the experimental room at least 30 min before testing.
Rats were submitted to two trials spaced by an intertrial interval of 24 h. During the first trial (acquisition trial, T1), rats were placed in the arena containing 2 identical objects and time required by each animal to complete 15 sec. of object exploration was determined with a cut-off time of 4 min. Exploration was considered to be directing the nose at a distance less than 2 cm from the object and/or touching the object. For the second trial (testing trial, T2), one of the objects presented in the first trial was replaced by an unknown object (novel object), rats were placed back in the arena for 3 min and exploration of each object was determined. For both T1 and T2, locomotor activity of rats was scored.
Using group numbers of 18, rats were randomized to constitute the following groups: 1) Vehicle (5% PEG200 in water) p.o.; 2) Compound No. 88 or 90 (0.03 mg/kg) p.o.; 3.
The following parameters were measured: 1) Time required to achieve 15 sec. of object exploration on T1 (sec.); 2) Locomotor activity on T1 (number of crossed lines); 3) Time spent in active exploration of the familiar object on T2 (sec.)=TF; 4) Time spent in active exploration of the novel object on T2 (sec.)=TN; 5) Locomotor activity on T2 (number of crossed lines).
All parameters were analysed using SAS software (version 8.2). Statistical tests were performed with an alpha level of 0.05.
Data set [3] concerns the target human dopamine D2L receptor (Homo sapiens, UniProt P14416). As to the kind of experiment: cAMP functional assay, dopamine D2L (CHO-K1, HTRF). The format is cell-based. Further details: host or cells: CHO-K1 co-expressing mitochondrial apoaequorin and Gα16. As to conditions: for inhibition at 0.005 µM: antagonist concentration 5 nM; for inhibition at 0.05 µM: antagonist concentration 50 nM; for inhibition at 0.5 µM: antagonist concentration 500 nM; for inhibition at 5 µM: antagonist concentration 5000 nM; for inhibition at 15 µM: antagonist concentration 15000 nM. From the text:
To study the functional activity of compounds of the invention on the human recombinant dopamine D2L with Aequorin, GTPγS and cAMP functional assays and on the human recombinant serotonin 5-HT2A receptor with Aequorin, CHO-K1 cell lines expressing D2L or 5-HT2A recombinant receptor, mitochondrial apoaequorin and Gα16 were used for the Aequorin assay. CHO-K1 cell line expressing the recombinant D2L receptor was used for the cAMP assay and was amplified to prepare membranes used for the GTPγS assay.
The test was performed in 96 well plates. For agonist testing, 12 μL of cells (2,500 cells/well) were mixed with 6 μL of increasing concentrations of test compound or reference agonist and 6 μL of Forskolin […] (Calbiochem, cat n^o 344270). For antagonist testing, 12 μL of cells (2,500 cells/well) were mixed with 6 μL of test compound or reference antagonist at increasing concentrations. After incubation of 10 min at room temperature, 6 μL of a mix of Forskolin […] final concentration and the reference agonist at a final concentration corresponding to the EC80 were added. The plates were then incubated for 30 min at room temperature.
(In TR-FRET formats the signal depends on donor and acceptor labels being close together.)

The mark [4] stands for this setting: 0.03, 0.1, 0.3, 1 and 3 mg/kg p.o.
Setting [5] is: antagonist concentration 150 nM.
The mark [6] stands for this setting: antagonist concentration 1500 nM.
Setting [7] is: 0.03, 0.1, 0.3, 1, 3 and 10 mg/kg p.o.

Experimental findings from patent publication US8906925B2, “Pyrido[4,3-B]indoles containing rigid moieties” (Medivation Technologies, Inc., priority 2008, dated 2014) are described below.

Like-named read-outs stand apart in the source and are kept apart here.

human dopamine D2L receptor, sequence (P14416 whole entry): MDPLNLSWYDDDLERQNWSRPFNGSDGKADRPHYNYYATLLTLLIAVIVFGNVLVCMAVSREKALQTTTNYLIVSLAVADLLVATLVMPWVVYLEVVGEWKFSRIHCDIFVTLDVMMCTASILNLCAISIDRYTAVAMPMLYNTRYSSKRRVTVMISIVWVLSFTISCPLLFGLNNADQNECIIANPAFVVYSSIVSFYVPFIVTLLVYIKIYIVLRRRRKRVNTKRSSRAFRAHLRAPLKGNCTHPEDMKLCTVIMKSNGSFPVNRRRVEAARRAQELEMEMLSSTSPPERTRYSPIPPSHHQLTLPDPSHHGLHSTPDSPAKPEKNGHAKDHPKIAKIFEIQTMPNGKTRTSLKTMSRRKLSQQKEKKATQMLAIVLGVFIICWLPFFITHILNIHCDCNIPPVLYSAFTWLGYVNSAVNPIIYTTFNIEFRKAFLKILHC

In the case of `C/C(=C\n1c2c(c3cc(Cl)ccc31)CN(C)CC2)c1ccncc1` [Compound 90, (E)-8-chloro-2,3,4,5-tetrahydro-2-methyl-5-(2-(pyridin-4-yl)prop-1-enyl)-1H-pyrido[4,3-b]indole], the “PCP-induced decrease of social interaction” value in data set [1] (1 mg/kg p.o., 30 min prior to test) was “fully reversed”. The “sedation in the home cage during pretreatment time” value in data set [1] (3 mg/kg p.o.) is “Mild sedation”. Also, the “deficits in social interaction time induced by chronic PCP” value in data set [1] (0.3 and 3 mg/kg p.o., did not reach control levels (partial reversal)) is reported as “significantly attenuated”. In addition, the “memory performance (TN−TF and RI) compared to vehicle, ANOVA + Dunnett's test” value in data set [2] (0.1 mg/kg p.o.) was “reached the threshold of statistical significance”. Besides, the “memory performance (TN−TF and RI) compared to vehicle, ANOVA + Dunnett's test” value in data set [2] (1 mg/kg p.o.) is listed as “reached the threshold of statistical significance”. For the same compound, in data set [2] (setting [4]), the “memory performance (TN−TF and RI values)” value is “improved”; the “number of "good learners" (Δ≧5 sec.)” value was “confirmed the cognitive enhancing activity”. For the same compound, the “locomotor activity assessed during T1 and T2” value in data set [2] (rat, in vivo, po, 3 mg/kg) was “no statistically significant effects”. Also, in data set [3], the inhibition (commonly the relative decrease from the control value, in per cent) at 0.005 µM is 84.1%; the inhibition at 0.05 µM amounted to 94.7%; the inhibition at 0.5 µM was 93.7%; the inhibition at 5 µM was 100%. Also, the inhibition at 15 µM in data set [3] is 102%. Also, the inhibition at […] in data set [3] (antagonist concentration 15 nM) turned out to be 91.7%. Also, the inhibition at […] in data set [3] (setting [5]) is 94%. In data set [3] (setting [6]), the inhibition at […] was determined as 100%.

Turning to `C/C(=C\n1c2c(c3cc(Cl)ccc31)CN(C)CC2)c1ccc(F)cc1` [Compound 83, (E)-8-chloro-5-(2-(4-fluorophenyl)prop-1-enyl)-2,3,4,5-tetrahydro-2-methyl-1H-pyrido[4,3-b]indole], in data set [3], the inhibition at 0.005 µM amounted to 75.5%, the inhibition at 0.05 µM was determined as 98.2%, the inhibition at 0.5 µM stood at 106% and the inhibition at 5 µM amounted to 106%. Besides, the inhibition at 15 µM in data set [3] was 111%. For the same compound, the inhibition at […] in data set [3] (antagonist concentration 15 nM) came out at 97.8%. In data set [3] (setting [5]), the inhibition at […] amounted to 104%. In data set [3] (setting [6]), the inhibition at […] is 107%.

In the case of `C/C(=C\n1c2c(c3cc(C)ccc31)CN(C)CC2)c1ccncc1` [Compound 88, (E)-2,3,4,5-tetrahydro-2,8-dimethyl-5-(2-(pyridin-4-yl)prop-1-enyl)-1H-pyrido[4,3-b]indole], the “PCP-induced decrease of social interaction time” value in data set [1] (0.3, 1 and 3 mg/kg p.o., 30 min prior to test) is listed as “attenuated”. Moreover, in data set [2] (0.3 mg/kg p.o.), the “memory performance (TN−TF and RI) compared to vehicle, ANOVA + Dunnett's test” value is on record as “reached the threshold of statistical significance”. For the same compound, the “memory performance (TN−TF and RI) compared to vehicle, ANOVA + Dunnett's test” value in data set [2] (1 mg/kg p.o.) was “reached the threshold of statistical significance”. Moreover, in data set [2] (setting [7]), the “memory performance (TN−TF and RI values)” value is reported as “improved”; the “number of "good learners" (Δ≧5 sec.)” value is “confirmed the cognitive enhancing activity”. Moreover, the “cognitive enhancing activity (delay of onset of natural forgetting)” value in data set [2] (single oral administration 0.03, 0.1, 0.3, 1, 3 and 10 mg/kg, 30 min before T1) was “displayed a cognitive enhancing activity”.
